According to ChEMBL document CHEMBL1201862, “PubChem BioAssay data set” (2004):
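Five compound concentrations were applied to cells in 96-well plates for 48 hours; endpoints were derived by simple linear interpolation of the resulting dose-response curve. The concentration for 50% growth inhibition is given as GI50.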 Calls of active or inactive are those of the source. No stated cut-off is given here; in the data, active = GI50 up to about 1.1 µM and inactive = higher.

Key:
Test in all cases: DTP human tumour cell line panel, 48 h
DU-145 = tested on: DU-145
HCT-116 = tested on: HCT-116
HCT-15 = tested on: HCT-15
HOP-62 = tested on: HOP-62
HOP-92 = tested on: HOP-92
HT-29 = tested on: HT-29
LOX IMVI = tested on: LOX IMVI
Malme-3M = tested on: Malme-3M
NCI-H226 = tested on: NCI-H226
NCI-H522 = tested on: NCI-H522
NCI/ADR-RES = tested on: NCI/ADR-RES
SF-295 = tested on: SF-295
SF-539 = tested on: SF-539
SK-MEL-28 = tested on: SK-MEL-28
SK-MEL-2 = tested on: SK-MEL-2
SNB-75 = tested on: SNB-75
SW-620 = tested on: SW-620
TK-10 = tested on: TK-10
UACC-257 = tested on: UACC-257
UO-31 = tested on: UO-31

| SMILES | GI50 (DU-145) | GI50 (HCT-116) | GI50 (HCT-15) [µM] | GI50 (HOP-62) | GI50 (HOP-92) | GI50 (HT-29) | GI50 (LOX IMVI) | GI50 (Malme-3M) | GI50 (NCI-H226) | GI50 (NCI-H522) | GI50 (NCI/ADR-RES) | GI50 (SF-295) | GI50 (SF-539) | GI50 (SK-MEL-28) | GI50 (SK-MEL-2) | GI50 (SNB-75) | GI50 (SW-620) | GI50 (TK-10) | GI50 (UACC-257) | GI50 (UO-31) |
| --- | --- | --- | --- | --- | --- | --- | --- | --- | --- | --- | --- | --- | --- | --- | --- | --- | --- | --- | --- | --- |
| CSc1ncnc2c1ncn2CC(=O)C1CCC2C3CCC4=CC(=O)CCC4(C)C3CCC12C (stereo not given) | 13.9 µM (inactive) | 4.15 µM (inactive) | 4.56 | 2.42 µM (inactive) | 14.8 µM (inactive) | 3.76 µM (inactive) | 4.38 µM (inactive) | 7.16 µM (inactive) | 5.85 µM (inactive) | 3.61 µM (inactive) | 2.5 µM (inactive) | 3.21 µM (inactive) | 8.41 µM (inactive) | 5.47 µM (inactive) | 2.98 µM (inactive) | 5.19 µM (inactive) | 9.16 µM (inactive) | 4.46 µM (inactive) | 2.05 µM (inactive) | 0.757 µM (active) |
| N#CC12CC=C(c3ccccc3)N=C1NC(c1ccccc1)=CC2 (stereo not given) | 57.5 µM (inactive) | 47 µM (inactive) | 69.7 | > 100 µM (inactive) | 16 µM (inactive) | 57.3 µM (inactive) | 30.8 µM (inactive) | > 100 µM (inactive) | 60.8 µM (inactive) | 46.7 µM (inactive) | 53.5 µM (inactive) | 57.7 µM (inactive) | > 100 µM (inactive) | > 100 µM (inactive) | 56.4 µM (inactive) | 49 µM (inactive) | 98.9 µM (inactive) | > 100 µM (inactive) | 48.6 µM (inactive) | 40.3 µM (inactive) |
| Cc1ccc2c(c1)C(=O)C(C1OC(=O)c3ccccc31)C2 (stereo not given) | > 100 µM (inactive) | 70.3 µM (inactive) | 42.8 | > 100 µM (inactive) | > 100 µM (inactive) | 29.2 µM (inactive) | 39.9 µM (inactive) | > 100 µM (inactive) | 30.5 µM (inactive) | 83.4 µM (inactive) | 33.7 µM (inactive) | > 100 µM (inactive) | 52 µM (inactive) | > 100 µM (inactive) | > 100 µM (inactive) | > 100 µM (inactive) | > 100 µM (inactive) | 38.5 µM (inactive) | > 100 µM (inactive) | > 100 µM (inactive) |
| COc1ccccc1/C=C1\CCC(CN2CCOCC2)C1=O (stereo not given) | 17.3 µM (inactive) | 6.92 µM (inactive) | 4.24 | 25.5 µM (inactive) | 18.4 µM (inactive) | 11 µM (inactive) | 6.52 µM (inactive) | 10.2 µM (inactive) | 16.9 µM (inactive) | 1.77 µM (inactive) | 8.95 µM (inactive) | 19.2 µM (inactive) | 15.2 µM (inactive) | 15.5 µM (inactive) | 15.7 µM (inactive) | 20.2 µM (inactive) | 4.16 µM (inactive) | 3.49 µM (inactive) | 11.6 µM (inactive) | 16.6 µM (inactive) |
| COc1cc(C(=O)NC(CCN)(c2ccccc2)c2ccccc2)cc(OC)c1OC | > 31.6 µM (inactive) | > 42.4 µM (inactive) | > 31.6 | > 31.6 µM (inactive) | 15.3 µM (inactive) | 16.8 µM (inactive) | 16.7 µM (inactive) | 13.5 µM (inactive) | 30.8 µM (inactive) | 16.6 µM (inactive) | 42.7 µM (inactive) | 21.6 µM (inactive) | > 65.2 µM (inactive) | 13.8 µM (inactive) | 63.2 µM (inactive) | 17 µM (inactive) | 29.6 µM (inactive) | 28.8 µM (inactive) | 16.8 µM (inactive) | 20.9 µM (inactive) |
| NNC(=O)Nc1cccnc1 | > 100 µM (inactive) | > 100 µM (inactive) | > 100 | > 100 µM (inactive) | > 100 µM (inactive) | > 100 µM (inactive) | > 100 µM (inactive) | > 100 µM (inactive) | > 100 µM (inactive) | > 100 µM (inactive) | > 100 µM (inactive) | > 100 µM (inactive) | > 100 µM (inactive) | > 100 µM (inactive) | > 100 µM (inactive) | > 100 µM (inactive) | > 100 µM (inactive) | > 100 µM (inactive) | > 100 µM (inactive) | > 100 µM (inactive) |
